This is an account of results in US11896589B2, “Diazinyl amino acridines and medical uses thereof” (MyCural Therapeutics AB, priority 2018, dated 2024).

The structures appear in SMILES notation. Like-named read-outs stand apart in the source and are kept apart here.

The target in the experiment is T1, MYCbHLHZip (Homo sapiens, UniProt P01106).
T1 construct: An amino coupling procedure was used to immobilize MYCbHLHZip protein on a CM5 sensor chip
As to the kind of experiment: Assay 2B MYC SPR assay. In kind it is binding. The procedure: FIG. 3: A) SPR assay to determine affinity of Example 1 to MYC. MYC bHLHZip protein was immobilized by aminocoupling on a CM5 sensor chip. Example 1 was injected at various concentrations in a kinetic experiment. The reference surface was subtracted from the analyte surface to generate a sensorgram. […] B) Four MYC equilibrium binding experiments with Example 1 summarized in an equilibrium binding plot. […] Equilibrium binding experiments of MYC with Example 2 and control compound (non-binder) were plotted as well. Assay 2B. MYC SPR Assay To analyze the direct binding of compounds to MYC, the direct binding of compounds to MYC was detected by surface plasmon resonance (SPR) as described above (Biological example 1—Assay 1B). An amino coupling procedure was used to immobilize MYCbHLHZip protein on a CM5 sensor chip (GE Healthcare) resulting in immobilization levels of approximately 800 respectively 1000 RU. The compounds were injected at different concentrations, one at a time, over the surface for 50-80 seconds with a flow rate of 30 μl/min. Afterwards the compounds were allowed to dissociate for 240 seconds in running buffer (137 mM NaCl, 2.7 mM KCl, 10 mM Na2HPO4, 1.8 mM KH2PO4, 0.005% Tween-20, 1% DMSO, pH 7.4). To remove all remaining analyte the surface was regenerated with 2M Urea for 30 seconds and thereafter 1M NaCl, 2.7 mM KCl, 10 mM Na2HPO4, 1.8 mM KH2PO4, 1% DMSO, pH 7.4 for 30 seconds. Sensorgrams were generated by subtraction of the reference (blank immobilized) surface. Binding responses were related to respective compounds' Rmax. Rmax is the maximum response of a compound when it binds with a 1:1 stochiometry to the protein; Rmax=(MW analyte/MW ligand)×immobilized ligand level on the chip (RU) x stoichiometry (1:1). Kinetic experiments were carried out where recombinant MYC bHLHZip was immobilized on the chip and different concentrations of Example 1 were injected as above. […] Example 2-6 were analyzed for their MYC binding properties by equilibrium binding experiments as described for example 1.

T1 sequence (P01106 368-449 limits assumed): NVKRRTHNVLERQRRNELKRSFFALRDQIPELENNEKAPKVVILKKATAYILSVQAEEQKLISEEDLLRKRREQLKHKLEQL

As to `CCOc1ccc2nc3cc(/N=N/c4ccc(N)nc4N)ccc3c(N)c2c1` [Example 1, 3-((9-amino-7-ethoxyacridin-3-yl)diazenyl)pyridine-2,6-diamine sulphate hydrate], the Kd amounted to 1600 ± 500 nM (1:1 Langmuir model, read-out: KD (average of four kinetic experiments)) and 2500 nM (Langmuir 1:1, constant Rmax 43 RU, read-out: KD (one representative kinetic experiment)). Also, under “equilibrium binding experiments”, the “Binding relative to Rmax” value is 1.6 Response Units. Also, the kon (representative kinetic experiment, read-out: association rate ka) was 9290 M⁻¹ s⁻¹. Where the note is “representative kinetic experiment, read-out: dissociation rate kd”, the koff worked out at 0.0229 s⁻¹.
